# Where two headings read alike, the source gives them in different places.
# What was measured:
# CYP1A1 = system: CYP1A1; design: method as in Kim et al., 2016; conditions: human liver microsomes; ref Kim et al., 2016; cited from earlier work
# [1] = design: method as in Wang et al., 2015; conditions: ref Wang et al., 2015; cited from earlier work
# CYP2C9 = conditions: human liver microsomes, cited from earlier work
# [2] = design: method as in Li et al., 2017; Kuang et al., 2021; conditions: human liver microsomes; ref Li et al., 2017; Kuang et al., 2021; cited from earlier work
# CYP2C19 = system: CYP2C19; design: method as in Li et al., 2017; Kuang et al., 2021; conditions: human liver microsomes; ref Li et al., 2017; Kuang et al., 2021; cited from earlier work
# CYP1A2 = system: CYP1A2; design: method as in Li et al., 2017; Kuang et al., 2021; conditions: human liver microsomes; ref Li et al., 2017; Kuang et al., 2021; cited from earlier work
# [3] = Tissue distribution of GCM after intraperitoneal administration; assay type: in vivo; conditions: intraperitoneal 20 mg/kg, rats
# Protocol: Twenty-five rats were randomly divided into five groups and administered 20 mg/kg GCM intraperitoneally. Samples of various tissues (heart, liver, spleen, lung, kidney, and brain) of a certain weight were collected from the rats at 0.5, 1, 2, 4, and 6 h following GCM administration. All tissues were then rinsed with normal saline to clean the blood, blotted with filter paper, and stored at −40°C until use. Blood samples were collected via the carotid artery at the specified time points, and plasma samples were harvested as described above.
# Tissue samples were accurately weighed and homogenized in ice-cold saline (1:4, w/v) using a glass tissue homogenizer. Homogenized organs were centrifuged at 12,000 × g for 10 min to obtain clear supernatants; the supernatant was then transferred to a clean test tube kept at −40°C until assayed.
# (§1) An LC-MS/MS system comprising an Agilent 1260 HPLC system (Palo Alto, CA, United States) and an Applied Biosystems 4500 Q-Trap mass spectrometer equipped with an electrospray ionization source (Foster City, CA, United States) was used. Chromatographic separation was performed on a C18 column (100 × 4.6 mm, 3 μm, Thermo Fisher Scientific, Waltham, MA, United States) maintained at 30°C. The mobile phases comprised 0.1% (v/v) formic acid in water (A) and acetonitrile (B) at a flow rate of 0.4 mL/min. […] The total run time was 4 min. For mass spectrometry detection, the positive ion mode was used and the ion spray voltage was set at 5,500 V. The operating conditions were as follows: ion source temperature, 450°C; curtain gas, 20 psi; collision gas, medium. Ion source gases 1 and 2 were both at 60 psi. The collision energies were 37 and 42 V, and the declustering potentials for GCM and IS were 110 and 136 V, respectively. Quantification was performed by multiple reaction monitoring (MRM) of molecular ions and product ions at m/z 369.3 and 284.7 for GCM and 337.0 and 280.9 for IS (Supplementary Figure S1). Analyst® software (Version 1.6.3) was used for data acquisition and peak integration.
# CYP2C8 = system: CYP2C8; design: method as in Li et al., 2017; Kuang et al., 2021; conditions: human liver microsomes; ref Li et al., 2017; Kuang et al., 2021; cited from earlier work
# [4] = Biliary excretion of free and total GCM after i.v. administration; assay type: in vivo, rats; conditions: free GCM, i.v. 10 mg/kg; for dose excreted: Sprague-Dawley, rat, bile, iv, 10 mg/kg, read-out: Bile recovery
# Protocol: Rats (n = 6) underwent bile fistula cannulation under anesthesia prior to bile sample collection. Bile samples from rats following i. v. GCM administration (10 mg/kg) were collected via cannula every 2 h over an 8 h collection period. Samples were collected from the catheter and delivered into acidified (0.1% HCl) centrifuge tubes. The rats were placed on thermostatic plates and kept under mild anesthesia throughout the experiment. The bile samples were diluted with saline and stored at −40°C until assayed.
# (§2) Two aliquots of 50 μL prepared bile or urine samples were spiked with or without β-glucuronidase to determine the total or free GCM concentrations, as described above. The mixtures were incubated at 37°C for 40 min, and the mixtures were then spiked with 120 μL of ice-cold methanol containing IS to stop incubation. A 10 μL supernatant of each sample was used for the analysis.
# as §1
# [5] = Urinary excretion of free and total GCM after i.v. administration; assay type: in vivo, rats; conditions: Sprague-Dawley, rat, urine, iv, 10 mg/kg, free GCM, i.v. 10 mg/kg
# Protocol: Six rats were individually placed in metabolic cages and administered 10 mg/kg GCM by i. v. injection. Urine samples were collected over 24 h after administration in a urine reservoir containing 2 mL 0.1% HCl to avoid GCM degradation. Each urine reservoir was rinsed with 5 mL normal saline after collection. Every urine sample was diluted to 20 mL with normal saline and then stored at −40°C until assayed.
# as §2, §1
# [6] = In vitro stability of GCM in pH buffers and gastrointestinal content solutions; assay type: in vitro ADME, rats; conditions: 4 h at 37°C, 0.8 μg/mL
# Protocol: The gastrointestinal tract solutions were collected as described previously ([Kong et al., 2013]). Briefly, rats were fasted overnight and sacrificed; the entire stomach, small intestine, and colon of each rat were removed, and their contents were rapidly collected on ice. Each of the contents was suspended in buffer solutions at pH 1.2, 6.8, and 7.4. Following mixing and centrifugation, the protein content of the gastrointestinal tract solutions was assayed using the BCA protein assay kit from Solarbio (Beijing, China) and then adjusted to 12 mg/mL for further study.
# The stability of GCM in the gastrointestinal tract, including chemical stability and enzymatic stability, was assessed using an in vitro method as described previously ([Kong et al., 2013]). Briefly, GCM was spiked into different pH (1.2, 6.8, and 7.4) buffers and gastrointestinal content solutions containing the GCM at a final concentration of 0.8 μg/mL. The solutions were then mixed and incubated at 37°C. Aliquots of 200 μL samples were collected at 0.5, 1, 2, and 4 h, and 200 μL ice-cold methanol containing 200 ng/mL IS was added to stop the incubation. After centrifugation, 10 μL of the supernatant was used for analysis. Each experiment was performed in triplicate.
# CYP2D6 = system: CYP2D6; design: method as in Qiao et al., 2014a; conditions: ref Qiao et al., 2014a; cited from earlier work
# [7] = Plasma pharmacokinetics of free and total GCM after i.v. or oral administration (LC-MS/MS, with or without β-glucuronidase hydrolysis); assay type: in vivo, Sprague-Dawley rats
# From the text: Male Sprague-Dawley rats (200 ± 20 g) were obtained from SJA Laboratory Animal Co. Ltd. (Hunan, China). All animals were kept under standard conditions of light, humidity, and temperature, and were allowed free access to a standard diet and water. All animal experiments were approved by the Animal Ethics Committee of Bijie City First People’s Hospital (BY[2019]-02-198). On the day before GCM administration, rats were subjected to a minor surgical procedure. Briefly, a polyurethane catheter (0.59 mm ID, 0.94 mm OD; Skillsmodel Limited, Beijing, China) was cannulated into the right jugular vein while under anesthesia induced using an intraperitoneal dose of chloral hydrate at 350 mg/kg. After surgery, the rats were individually placed in metabolism cages to allow recovery for at least 24 h. The rats were fasted overnight with free access to water before GCM administration.
# All GCM dosing drugs were freshly prepared at a concentration of 10 mg/mL prior to the experiments. Briefly, GCM was dissolved in normal saline containing 5% (v/v) Solutol HS 15. The animals were randomly divided into three groups. The i. v. administration group was treated intravenously with […] by quick injection through the cannulated catheter, and approximately 0.2 mL saline with 20 units of heparin was injected to flush the catheter and prevent blood coagulation. The oral administration group was treated with […] in a single gastric gavage dose, and the intraperitoneal injection group received 20 mg/kg GCM through intraperitoneal injection.
# Approximately 0.3 mL blood samples were collected via the cannula and placed into heparinized micro centrifuge (Eppendorf) tubes at multiple time-points (0.08, 0.25, 0.50, 1, 2, 3, 4, 5, 6, 7, 8, 10, 12, and 24 h) after GCM administration. The samples were centrifuged at 3000 × g for 5 min at 4°C for plasma separation; a 0.1 mL aliquot of each separated plasma sample was harvested and stored at −40°C until assessed.
# Free (parent drug) and/or total (including parent and glucuronidated metabolites) GCM concentrations in rat plasma, tissues, urine, and bile were quantitatively assayed using LC-MS/MS before and after hydrolytic treatment with β-glucuronidase.
# Aliquots (100 μL) of plasma samples were divided into two equal fractions for determining the free and total GCM concentrations, as previously described ([Chang et al., 2012]). Briefly, two aliquots of 50 μL plasma were incubated at 37°C with or without β-glucuronidase at a concentration of 1,200 units for total and free GCM, respectively. After 40 min of incubation, 10 μL of IS (1,000 ng/mL) was added to the mixtures followed by extraction with ethyl acetate. After centrifugation, the clear ethyl acetate layer was transferred and concentrated using a freeze-dry concentration method at 4°C. Subsequently, the remaining material was reconstituted in 200 μL of 90% (v/v) methanol. A 10 μL aliquot of the supernatant was injected into the LC-MS/MS system for analysis.
# as §1, with “Quantification was performed by multiple reaction monitoring (MRM) of molecular ions and product ions at m/z 369.3 and 284.7 for GCM and 337.0 and 280.9 for IS (Supplementary Figure S1). Analyst® software (Version 1.6.3) was used for data acquisition and peak integration.” left out
# CYP2B6 = system: CYP2B6; design: method as in Li et al., 2017; Kuang et al., 2021; conditions: human liver microsomes; ref Li et al., 2017; Kuang et al., 2021; cited from earlier work
# [8] = male, Sprague-Dawley, iv, free GCM, i.v. 10 mg/kg, rat plasma
smiles,measurement,setting,value
COc1c(CC=C(C)C)c(O)cc2oc(=O)c3c4ccc(O)cc4oc3c12 [Glycyrol],CYP1A1 inhibition,CYP1A1,competitive inhibitory effects
same,Absorption into the blood after oral administration,[1],not absorbed into the blood
same,CYP2C9 inhibition,"CYP2C9; ref Kim et al., 2016",competitive inhibitory effects
"COc1c(CC=C(C)C)c(O)cc2oc(=O)c(-c3ccc(O)cc3O)cc12 [GCM, Glycycoumarin]",UGT1A19 inhibition,[2],strongly inhibit
same,CYP2C19 inhibition,CYP2C19,strongly inhibit
same,CYP1A2 inhibition,CYP1A2,strongly inhibit
same,Blood-brain barrier crossing,[3],cannot cross the blood-brain barrier
same,GCM in brain samples,[3],not detected
same,Tissue concentration rank order,[3],"liver, followed by that in the spleen, lung, heart, and kidney"
same,GCM levels in most tissues by 6 h after dosing,[3]; 6 h,undetectable levels
same,CYP2C8 inhibition,CYP2C8,strongly inhibit
same,dose excreted,[4]; 0–2 h,0.2 ± 0.12%
same,dose excreted,[4]; 2–4 h,0.08 ± 0.06%
same,dose excreted,[4]; 4–6 h,0.05 ± 0.04%
same,Parent form excreted from bile over 0–8 h,[4]; 0–8 h,< 1 % of the delivered dose
same,dose excreted,"[5]; 0–12 h, read-out: Urine recovery",0.28 ± 0.25%
same,dose excreted,"[5]; 0–24 h, read-out: Urinary recovery over 24 h",0.39%
same,dose excreted,"[5]; 12–24 h, read-out: Urine recovery",0.11 ± 0.1%
same,Stability in colon content solutions,[6],unstable
same,Stability in small intestine content solutions,[6],unstable
same,Stability in stomach content solutions,[6],relatively stable
same,Stability in pH buffer solutions,"[6]; pH 1.2, 6.8 and 7.4",relatively stable
same,CYP2D6 activity inhibition,CYP2D6,significantly inhibits
same,CYP2C9 inhibition,"CYP2C9; ref Li et al., 2017, Kuang et al., 2021",strongly inhibit
same,Parent GCM in plasma collected after 6 h,"[7]; free GCM, i.v. 10 mg/kg",almost undetectable
same,CL/F,"[7]; free GCM, i.v. 10 mg/kg, rats",149 ± 33.3 mL/min/kg
same,"Vd, λz/F","[7]; free GCM, i.v. 10 mg/kg, rats, in L/kg",9.25 ± 3.13
same,Free GCM in plasma after 2 h,"[7]; free GCM, oral 20 mg/kg",almost undetectable
same,AUC0-∞ of conjugated (glucuronidated) GCM relative to free GCM,"[7]; i.v. 10 mg/kg, rat plasma",approximately four-times higher
same,AUC(0-inf),[7]; [8],1170 ± 283 ng·h/mL
same,AUC(0-t),[7]; [8],1160 ± 284 ng·h/mL
same,C0,[7]; [8],5690 ± 1360 ng/mL
same,half-life,"[7]; male, Sprague-Dawley, iv, free GCM, i.v. 10 mg/kg, rat plasma, read-out: t1/2, λz (converted)",42.6 ± 6.6 min
same,CYP2B6 inhibition,CYP2B6,strongly inhibit

# — publication PMC10361251, “Absorption, tissue distribution, and excretion of glycycoumarin, a major bioactive coumarin from Chinese licorice (Glycyrrhiza uralensis Fisch)” (Frontiers in Pharmacology, 2023)
